Several values for one entry are separate records, joined by “and”; a condition that tells them apart may be missing. Equal values may be shown once. Numbered stars: 1 amine (or outer) side, 2 acyl side, 3 side chain; on linkers, the order of the positions; unused ones are H or OH. Peptide text beside a SMILES is read from it. * marks the point of attachment. C22 diacid = O=C(O)CCCCCCCCCCCCCCCCCCCCC(=O)*; C20 diacid = O=C(O)CCCCCCCCCCCCCCCCCCC(=O)*; C18 diacid = O=C(O)CCCCCCCCCCCCCCCCC(=O)*; γGlu = O=C(O)[C@H](CCC(=O)[*:2])N[*:1]; AEEA = NCCOCCOCC(=O)O
Tests used:
[1] = biological target: T1, calcitonin receptor (hCTR) (Homo sapiens, UniProt P30988); test: Calcitonin receptor agonism, CRE-luciferase assay in stably transfected CHO-K1/CALCR/Ga15 cells; assay type: cell-based; conditions: incubation of 24 hours; Table 4; read-out: EC50, activity against the calcitonin receptor in cells
T1 construct: host or cells: CHO-K1/CALCR/Ga15 cells, further stably transfected with a CRE-luciferase plasmid
T1 sequence (P30988 25-474): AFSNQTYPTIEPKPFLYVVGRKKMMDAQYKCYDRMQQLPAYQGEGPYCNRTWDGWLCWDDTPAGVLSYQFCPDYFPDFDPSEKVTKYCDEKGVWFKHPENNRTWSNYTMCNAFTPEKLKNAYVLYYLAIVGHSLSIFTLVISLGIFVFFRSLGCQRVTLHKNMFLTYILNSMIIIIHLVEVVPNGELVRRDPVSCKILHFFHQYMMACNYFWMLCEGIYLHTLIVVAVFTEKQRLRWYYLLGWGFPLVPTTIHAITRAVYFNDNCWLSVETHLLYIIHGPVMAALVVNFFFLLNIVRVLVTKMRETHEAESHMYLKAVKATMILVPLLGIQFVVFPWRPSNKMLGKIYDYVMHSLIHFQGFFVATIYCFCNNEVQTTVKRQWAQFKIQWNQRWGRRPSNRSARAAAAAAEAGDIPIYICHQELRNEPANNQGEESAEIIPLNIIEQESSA

[2] = Heat accelerated stability assay of polypeptide solutions (40° C., pH about 7.4), reversed phase chromatography; assay type: physicochemical; conditions: 40° C.; for Concentration change on 7 d / Concentration change on 26 d: pH about 7.4, 1 mg/mL; for Concentration change on 7 d / Purity change on 7 d: Day 7; for Concentration change on 26 d / Purity change on 26 d: Day 26; for Purity change on 7 d / Purity change on 26 d: reversed phase chromatography 214 nm; for Purity change on 7 d: purity on 7 d − purity on 0 d; for Purity change on 26 d: purity on 26 d − purity on 0 d
Procedure: A stability test chamber (BINDER GmbH), a 0.01 mg-readability balance (METTLER TOLEDO), a pH meter (METTLER TOLEDO), a biosafety cabinet (ESCO), T2G-II small-sized motor-driven capping machine (Changsha zhongya pharmaceutical equipment co. LTD), a high-speed refrigerated centrifuge (Eppendorf), a sterilizer cabinet (Shinva Medical), Agilent 1260 high-performance liquid chromatographer, and Sepax Bio-C18 4.6*250 mm 3 μm 200 Å reversed phase column were used.
Reagents and consumables included: ultrapure water (18.2 MΩ, self-made), acetonitrile (HPLC grade), trifluoroacetic acid (HPLC grade), sodium dihydrogen phosphate (pharmaceutical grade, Hunan Jiudian Hongyang Pharmaceutical Co., Ltd), hydrochloric acid (pharmaceutical grade, Hunan Er-Kang Pharmaceutical Co., Ltd), sodium hydroxide (Analytical Reagent grade, Hushi®, Sinopharm Chemical Reagent Co., Ltd), vials, rubber stoppers, disposable syringes, and sterile filters.
The lyophilized powder (1 mg/mL) of the polypeptide derivative prepared in accordance with the method of Example 1 was mixed with sodium dihydrogen phosphate (1.42 mg/mL) and dissolved in ultrapure water in the indicated mass-volume ratios. After adjusting pH to about 7.4 with hydrochloric acid/sodium hydroxide, the solution was filtered into a sterilized vial in a clean bench using a 0.22 μm sterile filter. The vial was then capped and placed into the stability test chamber at 40° C. Detections were made on Days 7 (7d) and 26 (26d), and during the assay, changes in the characteristics and properties of the polypeptide were observed and recorded. The sample was then centrifuged for 3 min at 10,000 rpm at 4° C., and the supernatant was transferred to a liquid phase sample vial for detecting the concentration and purity of the polypeptides using liquid phase chromatography described as below, wherein the concentration of the polypeptide=peak area/injection volume/extinction coefficient/60×flow rate, and the purity of the polypeptide=target peak area/total peak area×100%.
Conditions of the reversed phase chromatography Flow rate: 1.0 ml/min; Autosampler temperature: 15° C.; Column temperature: 25° C.; Detection wavelengths: 280 nm and 214 nm; Mobile phase A: 100% H2O+0.05% TFA; Mobile phase B: 100% ACN; and Gradient of elution listed in Table 6: […]

amylin receptor (hAMY3R) = biological target: T2, amylin receptor (hAMY3R) (Homo sapiens, UniProt O60896+P30988); test: Amylin receptor agonism testing, CRE-luciferase assay in stably transfected CHO-K1/Ga15/AMY3 cells; assay type: cell-based; conditions: incubation of 24 hours; Table 3; read-out: EC50, activity against the amylin receptor in cells
T2 construct: host or cells: CHO-K1/Ga15/AMY3 cells, further stably transfected with a CRE-luciferase plasmid
T2 sequence (P30988 25-474): T1 sequence (P30988 25-474)
T2 sequence (O60896 24-148): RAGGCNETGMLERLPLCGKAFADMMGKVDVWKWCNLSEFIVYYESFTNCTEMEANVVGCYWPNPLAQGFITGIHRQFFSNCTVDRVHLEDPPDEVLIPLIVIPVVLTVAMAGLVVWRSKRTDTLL
Description: The objective of this assay is to test the potency of the polypeptide derivatives in the present application on amylin and calcitonin receptors in vitro using a luciferase assay.
Using the standard protocol for construction of an amylin receptor/CRE-luc cell line, CHO-K1/Ga15/AMY3 cells (purchased from GenScript, with the calcitonin receptor and the receptor activity modifying peptide (RAMP) constructed already) were transfected with a plasmid containing a luciferase expression cassette driven by multiple copies of cAMP response elements (CREs). The cells were cultured in an F12 medium containing 200 ug/mL Zeocin, 2 ug/mL puromycin, 100 ug/mL hygromycin, and 400 ug/mL G418 to afford a stably transfected amylin receptor/CRE-luc cell line.
To each well of a white 96-well plate was added 50 μL of the tested sample solution at a respective concentration.
The stably transfected amylin receptor/CRE-luc CHO cells were resuspended in the growth medium at a certain density, and 50 μL of the cell suspension was added at a density of about 20,000 cells per well to the white 96-well plate containing the tested sample solution. After incubation of 24 hours at 37° C. and 5% CO2, 100 μL of a Luciferase substrate was added to each well, incubated for 3 minutes, and finally was tested for luminescence on SpectraMax L (Molecular Devices) with the software SoftMax Pro 7.0.3 GxP. A standard curve was plotted using the fluorescent intensities for calculation of EC50.

Row | EC50 [1] | Purity change on 7 d [2] | Purity change on 26 d [2] | EC50 (amylin receptor (hAMY3R)) | Compound | Concentration change on 7 d [2] | Concentration change on 26 d [2]
1 | 0.194 nM | No change | nearly no noticeable change in purity | – | CC(C)C[C@H](NC(=O)[C@H](CCCNC(=N)N)NC(=O)CNC(=O)[C@H](CC(C)C)NC(=O)[C@@H](NC(=O)[C@H](C)NC(=O)[C@@H](NC(=O)[C@H](CO)NC(=O)[C@H](CC(C)C)NC(=O)[C@H](CCC(N)=O)NC(=O)[C@H](CO)NC(=O)[C@H](C)NC(=O)CC[C@H](NC(=O)CCCCCCCCCCCCCCCCCCCCC(=O)O)C(=O)O)[C@@H](C)O)C(C)C)C(=O)N[C@@H](CO)C(=O)N[C@@H](CC(=O)O)C(=O)N[C@@H](CCC(=O)O)C(=O)N[C@@H](CC(C)C)C(=O)N[C@@H](Cc1c[nH]cn1)C(=O)N[C@@H](CCCNC(=N)N)C(=O)N[C@@H](CC(C)C)C(=O)N[C@@H](CCC(N)=O)C(=O)N[C@@H](CC(=O)O)C(=O)N[C@@H](Cc1ccc(O)cc1)C(=O)N1CCC[C@H]1C(=O)N[C@@H](CCCNC(=N)N)C(=O)N[C@H](C(=O)N[C@@H](CC(=O)O)C(=O)N[C@H](C(=O)NCC(=O)N[C@@H](CO)C(=O)NCC(=O)N[C@@H](CO)C(=O)N1CCC[C@H]1C(N)=O)C(C)C)[C@@H](C)O [M7] ({C22 diacid-γGlu}-ASQLSTAVLGRLSDELHRLQDYPRTDVGSGSP-NH2) | No change (concentration change of less than 1% (denoted as “no change”)) | No change (concentration change of less than 1% (denoted as “no change”))
2 | – | 2.59% | −2.19% | 0.015 nM | CC(C)C[C@H](NC(=O)[C@H](CCCNC(=N)N)NC(=O)CNC(=O)[C@H](CC(C)C)NC(=O)[C@@H](NC(=O)[C@H](C)NC(=O)[C@@H](NC(=O)[C@H](CO)NC(=O)[C@H](CC(C)C)NC(=O)[C@H](CCC(N)=O)NC(=O)[C@H](CO)NC(=O)[C@H](C)NC(=O)COCCOCCNC(=O)COCCOCCNC(=O)CC[C@H](NC(=O)CCCCCCCCCCCCCCCCC(=O)O)C(=O)O)[C@@H](C)O)C(C)C)C(=O)N[C@@H](CO)C(=O)N[C@@H](CC(=O)O)C(=O)N[C@@H](CCC(=O)O)C(=O)N[C@@H](CC(C)C)C(=O)N[C@@H](Cc1c[nH]cn1)C(=O)N[C@@H](CCCNC(=N)N)C(=O)N[C@@H](CC(C)C)C(=O)N[C@@H](CCC(N)=O)C(=O)N[C@@H](CC(=O)O)C(=O)N[C@@H](Cc1ccc(O)cc1)C(=O)N1CCC[C@H]1C(=O)N[C@@H](CCCNC(=N)N)C(=O)N[C@H](C(=O)N[C@@H](CC(=O)O)C(=O)N[C@H](C(=O)NCC(=O)N[C@@H](CO)C(=O)NCC(=O)N[C@@H](CO)C(=O)N1CCC[C@H]1C(N)=O)C(C)C)[C@@H](C)O [M22] ({C18 diacid-γGlu-AEEA-AEEA}-ASQLSTAVLGRLSDELHRLQDYPRTDVGSGSP-NH2) | – | −5.493%
3 | – | −1.66% | −5.98% | – | CC(C)C[C@H](NC(=O)[C@H](CCCNC(=N)N)NC(=O)CNC(=O)[C@H](CC(C)C)NC(=O)[C@@H](NC(=O)[C@H](C)NC(=O)[C@@H](NC(=O)[C@H](CO)NC(=O)[C@H](CC(C)C)NC(=O)[C@H](CCC(N)=O)NC(=O)[C@H](CO)NC(=O)[C@H](C)NC(=O)[C@H](CCC(=O)O)NC(=O)CCCCCCCCCCCCCCCCCCC(=O)O)[C@@H](C)O)C(C)C)C(=O)N[C@@H](CO)C(=O)N[C@@H](CC(=O)O)C(=O)N[C@@H](CCC(=O)O)C(=O)N[C@@H](CC(C)C)C(=O)N[C@@H](Cc1c[nH]cn1)C(=O)N[C@@H](CCCNC(=N)N)C(=O)N[C@@H](CC(C)C)C(=O)N[C@@H](CCC(N)=O)C(=O)N[C@@H](CC(=O)O)C(=O)N[C@@H](Cc1ccc(O)cc1)C(=O)N1CCC[C@H]1C(=O)N[C@@H](CCCNC(=N)N)C(=O)N[C@H](C(=O)N[C@@H](CC(=O)O)C(=O)N[C@H](C(=O)NCC(=O)N[C@@H](CO)C(=O)NCC(=O)N[C@@H](CO)C(=O)N1CCC[C@H]1C(N)=O)C(C)C)[C@@H](C)O [M10] ({C20 diacid}-EASQLSTAVLGRLSDELHRLQDYPRTDVGSGSP-NH2) | −2.290% | −10.562%
4 | – | −1.66% | −2.01% | 0.044 nM | CC(C)C[C@H](NC(=O)[C@H](CCCNC(=N)N)NC(=O)CNC(=O)[C@H](CC(C)C)NC(=O)[C@@H](NC(=O)[C@H](C)NC(=O)[C@@H](NC(=O)[C@H](CO)NC(=O)[C@H](CC(C)C)NC(=O)[C@H](CCC(N)=O)NC(=O)[C@H](CO)NC(=O)[C@H](C)NC(=O)COCCOCCNC(=O)COCCOCCNC(=O)COCCOCCNC(=O)COCCOCCNC(=O)COCCOCCNC(=O)COCCOCCNC(=O)COCCOCCNC(=O)COCCOCCNC(=O)CC[C@H](NC(=O)CCCCCCCCCCCCCCCCCCC(=O)O)C(=O)O)[C@@H](C)O)C(C)C)C(=O)N[C@@H](CO)C(=O)N[C@@H](CC(=O)O)C(=O)N[C@@H](CCC(=O)O)C(=O)N[C@@H](CC(C)C)C(=O)N[C@@H](Cc1c[nH]cn1)C(=O)N[C@@H](CCCNC(=N)N)C(=O)N[C@@H](CC(C)C)C(=O)N[C@@H](CCC(N)=O)C(=O)N[C@@H](CC(=O)O)C(=O)N[C@@H](Cc1ccc(O)cc1)C(=O)N1CCC[C@H]1C(=O)N[C@@H](CCCNC(=N)N)C(=O)N[C@H](C(=O)N[C@@H](CC(=O)O)C(=O)N[C@H](C(=O)NCC(=O)N[C@@H](CO)C(=O)NCC(=O)N[C@@H](CO)C(=O)N1CCC[C@H]1C(N)=O)C(C)C)[C@@H](C)O [M21] ({C20 diacid-γGlu-AEEA-AEEA-AEEA-AEEA-AEEA-AEEA-AEEA-AEEA}-ASQLSTAVLGRLSDELHRLQDYPRTDVGSGSP-NH2) | −1.388% | −4.522%
5 | – | – | – | 0.033 nM | H-ASQLSTAVLGRLSQELHRLQDYPRTDVGSGSP-NH2 [M5] | – | –

Continued, compound first:

Row | Compound | EC50 [1] | Purity change on 7 d [2] | Purity change on 26 d [2] | EC50 (amylin receptor (hAMY3R)) | Concentration change on 7 d [2] | Concentration change on 26 d [2]
6 | M19: SEQ ID NO. 4 ASQLSTAVLGRLSDELHRLQDYPRTDVGSGSP-NH2, N terminus, C20 diacid + γGlu + 4 AEEAs ({C20 diacid-γGlu-AEEA-AEEA-AEEA-AEEA}-ASQLSTAVLGRLSDELHRLQDYPRTDVGSGSP-NH2) | – | No change | nearly no noticeable change in purity | – | – | −1.589%
7 | D2: SEQ ID NO. 5 CSNLSTCVLGKLSQELHKLQTYPRTNTGSGTP-NH2, no modification, no fatty acid [reference compound] | – | – | – | – | −40% and −40.064% | –
8 | M20: SEQ ID NO. 4 ASQLSTAVLGRLSDELHRLQDYPRTDVGSGSP-NH2, N terminus, C20 diacid + γGlu + 6 AEEAs ({C20 diacid-γGlu-AEEA-AEEA-AEEA-AEEA-AEEA-AEEA}-ASQLSTAVLGRLSDELHRLQDYPRTDVGSGSP-NH2) | – | No change | −1.59% | – | No change (concentration change of less than 1% (denoted as “no change”)) | −3.662%
